Experimental data taken from patent US6552006B2, “Immunomodulatory polynucleotides in treatment of an infection by an intracellular pathogen” (The Regents of the University of California, priority 2000, dated 2003).

How the values were obtained:
M. avium [1] = assay: Intracellular growth of M. avium in mouse bone marrow-derived macrophages (mBMDM) in vitro, CFU assay; format: cell-based, Mycobacterium avium; conditions: for % of CFU: 10 μg/ml 72 h prior to infection, day 7, medium alone = 100%; for M. avium growth in mBMDM: L-try (final 66 μg/ml) or M-try (125 μM) alone; for reductions in the anti-mycobacterial ability of ISS treatment: M. avium-infected mBMDM cultured with L-try (66 μg/ml) or M-try (125 μM) supplemented media plus ISS
Protocol: A previously studied M. avium strain 13 (Hayashi, et al. (1999) Infect. Immun. 67:3558-3565; Meylan, et al. (1990) Infect. Immun. 58:2564-2568), isolated from an AIDS patient at UCSD, San Diego, Calif., was used in all experiments. The organism was cultured on Middlebrook 7H11 agar (Difco Laboratories, Detroit, Mich.) with OADC enrichment at 37° C. in the presence of 5% CO2 for two weeks. Transparent colonies were selectively picked and further cultured on Middlebrook 7H11 plates for two more weeks. The resulting colonies, which were predominantly transparent (>90%), were then collected and washed two times with phosphate-buffered saline (PBS). The bacteria were finally resuspended in Middlebrook 7H9 broth (Difco Laboratories) and the OD600 of the suspension was adjusted to 0.15-0.2. The suspension was aliquoted and stored at −70° C. until use. The number of organisms/ml of this suspension was determined by the colony forming unit (CFU) assay.
The number of CFU in a given sample was determined by colony counting as described previously (Ogata, et al. (1992) Infect. Immun. 60:4720-4725). Serial 10-fold dilutions of total cell lysates or tissue homogenates were performed in PBS. 10 μl of each dilution were plated on Middlebrook 7H11 plates supplemented with OADC enrichment. The plates were incubated up to 14 days at 37° C. The number of colonies was counted every alternate day from day 10 onwards until no new colonies appeared. This yielded the number of CFU/10 μl. The number of CFU in each well was then calculated.
Preparation of Murine Macrophages. Mouse bone marrow-derived macrophages (mBMDM) were prepared from mouse bone marrow using L-cell conditioned media, as described in Martin-Orozco, et al. (1999) […] 11:1111-1118.
Alternatively, 5×10^4 mBMDM or hMDM was treated with ISS for 3 days before infection. Macrophages treated with M-ODN or with media alone served as controls. After 3 days, the cells were infected for 2 hrs with M. avium at a macrophage:bacteria ratio of 2:1 for mBMDM or of 1:10 for hMDM, and subsequently cultured in fresh media without antibiotics. To examine attachment and/or invasion of M. avium, the macrophages were lysed immediately after washing, and the number of bacteria were enumerated by the CFU assay. Intracellular growth of M. avium was determined on days 1, 3, and 7 after infection. To account for all the mycobacteria in each group, corresponding lysates were combined and then the number of CFU was determined. To examine the efficacy of anti-mycobacterial treatments, CFU recovered from cells treated with medium alone were considered as 100% growth.
To determine whether treatment with ISS after infection alters M. avium growth, adherent cells were first infected with M. avium for 2 hrs and then these cells were cultured with fresh media containing ISS. Infected cells treated with M-ODN or medium alone served as controls. At day 7, intracellular growth of M. avium was assessed by CFU assay.

M. avium [2] = assay: Growth of M. avium in vivo in C57B1/6 mice, CFU per organ; set-up: species or system Mycobacterium avium
[3] = test system: indoleamine 2,3-dioxygenase (IDO); assay: IDO gene induction in vivo in mice, semi-quantitative RT-PCR; conditions: injection of M-ODN in mice
mBMDM = assay: Viability of mBMDM (trypan-blue exclusion); format: cell-based, mouse
Protocol: To examine whether treatment with ISS can stimulate macrophages to inhibit the growth of M. avium, mBMDM (5×10^4 mBMDM/well) was first treated with ISS or M-ODN for 72 hrs and then infected with M. avium. Then, cellular CFU was counted on days 1, 3, and 7 post-infection (FIG. 9A). By day 7, treatment with ISS inhibited intracellular growth of M. avium in mBMDM by 80% (p<0.001). Since viability of macrophages can affect M. avium growth, the viability of macrophages was assessed by trypan-blue exclusion. […]

L. major = conditions: BALB/c mice; injection four hours after inoculation with live L. major promastigotes; cited from earlier work
[4] = C57B1/6 mice, 10^7 CFU i.v., treatment from one week after infection, CLA 200 mg/kg alone, 5 weeks after infection

5′-TGACTGTGAAGGTTAGAGATGA-3′ (SEQ ID NO:3) (chemistry not given here) [M-ODN, mutated control oligodeoxynucleotide with 2 base alteration of the CpG motif]
% of CFU (M. avium [1]; mBMDM from IFN-αR−/− 129S6/SvEv): 106.9 ± 11.9% | % of CFU (M. avium [1]; mBMDM from IFN-γR−/− 129S6/SvEv): 108.1 ± 10.8% | % of CFU (M. avium [1]; mBMDM from IL-12 p40−/− C57B1/6): 117.6 ± 9.2% | % of CFU (M. avium [1]; mBMDM from INOS−/− C57B1/6): 105.0 ± 13.9% | % of CFU (M. avium [1]; mBMDM from NADPH oxidase−/− (gp91 phox−/−) C57B1/6): 107.0 ± 15.5% | % of CFU (M. avium [1]; mBMDM from TNF-α−/− C57B1/6): 120.0 ± 20.0% | % of CFU (M. avium [1]; mBMDM from Wild type 129S6/SvEV): 110.0 ± 15.9% | % of CFU (M. avium [1]; mBMDM from Wild type C57B1/6): 117.2 ± 18.5% | CFU in the spleen and lungs compared with control (PBS) mice (M. avium [2]; 10^7 organisms/mouse, four weeks after infection): similar | induction of IDO after injection [3]: did not result in any detectable induction of IDO | viable mBMDM (mBMDM): > 90%

Cn1cc(CC(N)C(=O)O)c2ccccc21 (racemic) [M-try, 1-methyl-DL-tryptophan]
M. avium growth in mBMDM (M. avium [1]): did not alter | reductions in the anti-mycobacterial ability of ISS treatment (M. avium [1]): 4 fold | viability of mBMDM (mBMDM; L-try (final 66 μg/ml) or M-try (125 μM) alone): did not alter

CC[C@H]1OC(=O)[C@H](C)[C@@H](O[C@H]2C[C@@](C)(OC)[C@@H](O)[C@H](C)O2)[C@H](C)[C@@H](O[C@@H]2O[C@H](C)C[C@H](N(C)C)[C@H]2O)[C@](C)(OC)C[C@@H](C)C(=O)[C@H](C)[C@@H](O)[C@]1(C)O [CLA, Clarithromycin, reference compound]
reduction of bacterial growth in mBMDM (M. avium [1]; mBMDM infected first, then treated, ISS 10 μg/ml, CLA 0.1 μg/ml, 7 days after infection, compared to medium alone): 84% | decrease of bacterial growth in the liver (M. avium [2]; [4]): 4 log | decrease of bacterial growth in the lungs (M. avium [2]; [4]): 1.5 log | decrease of bacterial growth in the spleen (M. avium [2]; [4]): 4 log

N[C@@H](Cc1c[nH]c2ccccc12)C(=O)O [L-try, L-tryptophan]
M. avium growth in mBMDM (M. avium [1]): did not alter | reductions in the anti-mycobacterial ability of ISS treatment (M. avium [1]): 4 fold

CpG-ODN 1826
animals protected from progressive infection (L. major): 65%
